The text below walks through data of patent US20230181499A1, “Hydroxyureamethyl-Acylfulvene for Treating Brain Cancer or CNS Cancer” (Lantern Pharma Inc., priority 2020, published 2023).

Series [1] is described as follows: Neuromics in vitro 3D blood-brain barrier model (brain endothelial cells, pericytes, astrocytes). The conditions noted are these: human. It counts as in vitro ADME, human. The source says:
(§1) To evaluate the in vivo therapeutic activity of Hydroxyureamethyl-acylfulvene in mice bearing glioblastoma U87-SC cells (without any drug treatment in vitro) were inoculated subcutaneously.
(§2) By way of background, the physically, metabolically and immunologically privileged status of the brain presents diagnostic and therapeutic limitations along with treatment-related neurotoxicity issues. A critical property of any drug for GBM would be its ability to penetrate the blood-brain barrier (BBB). […] In the highly representative Neuromics in vitro 3D model that closely recapitulates the human blood-brain barrier, transport properties of the blood-brain barrier are reflected due to the formation of tight junctions, higher expression of specific carriers, or great cell viability. This 3D in vitro model of the blood-brain barrier created by co-culturing brain endothelial cells with pericytes and astrocytes layered in an insert, improves endothelial cell polarization and enhances the formation of tight junctions, provides better endothelial cell-to-cell contact that is important for barrier development, and prevents the dilution of secreted neurotrophic factors. These conditions collectively lead to the development of an in vitro model that can truly mimic the blood-brain barrier. This assay leverages the novel 3D blood-brain barrier model that allows studying both compound transport across the barrier as well as the effect of compounds on the structure and function of the blood-brain barrier. Along with LP-184 and TMZ, the current standard of care chemotherapeutic for GBM, we also compared the behavior of known positive and negative control agents Antipyrine and Cyclosporin A respectively as benchmarks. […] Apparent blood brain barrier permeability measured for TMZ was 1.72*10-4 cm/s at 30 minutes and for LP-184 was 1.53*10-4 cm/s at 30 minutes, as illustrated in the following graph.

Another series relates to blood-brain barrier. The series is described as above. It counts as in vitro ADME, human. The conditions noted are these: for blood-brain barrier penetration (in words): in vitro model system.
Text: as §1, §2

For series [2], the system named is glioblastoma U87-SC cells. In words: U87 subcutaneous xenograft tumor model of GBM. It counts as in vivo, mice. The conditions noted are these: 4 every other day intravenous doses at 4 mg/kg.
Text: as §1

In another series the test system is GBM neurospheres (M1123). The experiment in a line: Mice implanted with GBM neurospheres (M1123), subcutaneous tumor model. It counts as in vivo.

Each structure is given as a SMILES string.

As to `Cn1nnc2c(C(N)=O)ncn2c1=O` [TMZ, temozolomide, reference compound], the Papp (usually the rate of passage across a membrane or cell layer, normalised by area and donor concentration) at 30 min in series [1] amounted to 172 ×10⁻⁶ cm/s.

As to `CC1=C(CN(O)C(N)=O)C2=C(C)C3(CC3)[C@@](C)(O)C(=O)C2=C1` [LP-184, hydroxyureamethyl-acylfulvene], the blood-brain barrier integrity entry in the series with blood-brain barrier (FIG. 3) is recorded as “not compromised”. Moreover, the “impact on cell viability” value in the series with blood-brain barrier (blood-brain barrier model, FIG. 3/4) was “insignificant impact on cell viability”. In addition, the “blood-brain barrier penetration (in words)” value in the series on blood-brain barrier is “as effective as TMZ in penetrating the blood-brain barrier”; in the series on blood-brain barrier (listed as Hydroxyureamethyl-acylfulvene), “shown to cross the blood-brain barrier”. For the same molecule, the tumor response entry (in series [2]; in the series on GBM neurospheres (M1123) (4 every other day intravenous doses at 4 mg/kg)) was “complete tumor regression” each time. Moreover, the “mice with no measurable tumors 12 days post the last dosing” value in series [2] (5 mice treated) is on record as “all 5 mice”. Further, in the series on GBM neurospheres (M1123) (4 every other day intravenous doses at 4 mg/kg, four mice), the “mice with no measurable tumor after 12 days of the last dose” value is recorded as “Three of four mice”. The “tumor volume relative to vehicle-treated control mice (physical observation)” value in the series on GBM neurospheres (M1123) (FIG. 7) is given as “clear tumor growth inhibition”.
